Reference: patent US20260207577A1, “METHODS OF USING FACTOR B INHIBITORS” (priority 2023, published 2026)

Columns and labels:
Assay type in all cases: in vivo, human
native C3G patients = test: Phase 2 study CLNP023X2202, proteinuria and renal function; settings: native C3G patients (N=16), final dose levels of 200 mg b.i.d.
Method: (§1) The proposed iptacopan dose of 200 mg b.i.d. is considered appropriate based on data from the Phase 2 study, CLNP023X2202. […] Thus, the 200 mg b.i.d. dose of iptacopan appears to produce maximum changes in all of the complement biomarkers that have been evaluated to date in C3G patients.

[1] = tested on: alternative complement pathway; test: Phase 2 study CLNP023X2202, complement biomarkers
Method: as §1

[2] = tested on: native kidney C3G patients; test: Phase 2 study CLNP023X2202, safety and tolerability
Method: as §1

CCO[C@H]1CCN(Cc2c(OC)cc(C)c3[nH]ccc23)[C@H](c2ccc(C(=O)O)cc2)C1 [iptacopan, 4-((2S,4S)-(4-ethoxy-1-((5-methoxy-7-methyl-1H-indol-4-yl)methyl)piperidin-2-yl))benzoic acid]
renal function (SCR, CrCl, eGFR) (native C3G patients): stabilization of renal function
reduction in UPCR from baseline to Week 12 (native C3G patients; two-sided p=0.0003): 45%
C3 levels, dose dependence ([1]; 16 native C3G patients): increased dose-dependently
dose at which maximum decreases in plasma Bb, plasma sC5b-9 and urine sC5b-9 were obtained ([1]; 16 native C3G patients): 100 mg b.i.d.
dose at which maximum decreases in the Wieslab assay and increases in C3 were observed ([1]; 16 native C3G patients): 200 mg b.i.d.
sC5b-9, Bb, the Wieslab assay and urine sC5b-9, dose dependence ([1]; 16 native C3G patients): decreased dose-dependently
plasma Bb, plasma and urine sC5b-9 ([1]; Cohort A): reduction
Wieslab activity ([1]; at 200 mg b.i.d): full inhibition
serum C3 levels ([1]; both cohorts): overall normalization
inhibition of alternative complement pathway ([1]; both cohorts, upon iptacopan treatment): Dose-dependent, profound and sustained inhibition
changes in hematology, biochemistry, urinalysis, vital signs or ECG parameters ([2]; in vivo): no notable changes
discontinuations due to adverse events ([2]; in vivo): no definitive discontinuations due to adverse events
tolerability ([2]; in vivo): well tolerated without unexpected or new safety findings
deaths or serious adverse events during the treatment period ([2]; native kidney C3G patients): no deaths or serious adverse events were observed
